Key:
[1] = system: GTFB expression in the wild-type S. mutans; assay: Western blot of GTFB expression after addition of CSP to cultures; assay type: cell-based; conditions: CSP added to fresh cultures at the time of dilution, 1 to 8 mcg/mL, FIG. 6 panel 1
Description: (§1) For the Western blotting, the bacteria were incubated to the desired optical density, subjected to the freeze-thaw cycle and mixed with the sample loading buffer. The samples were heated at 100° C. for 15 minutes and subjected to the PAGE. The number of cells per lane of the gel was kept constant at 10^8 cells. The western blotting was performed in accordance with a standard procedure (Sambrook, J. and Russel D. W. Molecular Cloning, a laboratory manual, 3rd ed. Cold Spring Harbor Laboratory Press, NY, 2001). Briefly, after PAGE the samples were transferred onto the nitrocellulose membrane and the latter subjected to the standard ELISA procedure. The anti-GTFB mouse monoclonal antibody was previously characterized (Fukushima, K., Okada, T., Ochiai, K., Infection and Immunity 61:323–328 (1993), incorporated herein by reference). The secondary antibody (HRP-linked goat anti-mouse) and the detection reagents were purchased from Cell Signaling Technology (Beverly, Mass.).
(§2) Synthetic CSP was dissolved in water to the concentration of 1 mg/mL as described in Li, Y-H et al., J. of Bact., 183:897–908 (2001). […]
(§3) A Western blot analysis was performed to determine the effect of CSP on the level of GTFB expression. […] As a control, the same blot was analyzed with antibody specific to FTF, where it was observed that CSP has no effect on FTF expression (FIG. 6, panel 2).

[2] = system: FTF expression; assay: Western blot control with antibody specific to FTF; assay type: cell-based, S. mutans; conditions: same blot analyzed with antibody specific to FTF; FIG. 6 panel 2
Description: as §1, §2, §3

[3] = system: gtfB gene of S. mutans; assay: Transcriptional fusion assay (gtfB promoter-luciferase, luminescence); assay type: cell-based; conditions: increasing concentrations of CSP, 10 minutes incubation at peak expression (end of lag phase); FIG. 7
Source text: The fusion constructs and the transcription assay were previously described (Goodman, S. D. and Gao, Q., Plasmid 43:85–98 (2000)). Briefly, the constructs comprised the upstream regions of the gtfB and gtfC genes fused to the promoterless coding sequence of the firefly luciferase gene and inserted into the plasmid vector pVA838, a shuttle plasmid capable of propagating in both E. coli and S. mutans marked with erythromycin resistance. The plasmids were introduced into S. mutans GS5 by electroporation and the resulting erythromycin resistant strains were grown in liquid cultures and collected at various optical densities. The reporter gene (luciferase) expression was detected by measuring luminescence upon the addition of luciferin (the substrate for luciferase), see Goodman, S. D. and Gao Q. Plasmid 42:154–157 (1999), incorporated herein by reference.
as §2
The transcriptional fusion assay was performed to determine whether CSP inhibits the expression of the gtfB gene of S. mutans. […] When the expression peaked at the end of the lag phase prior to the exponential growth, the cells were challenged with increasing concentrations of CSP for an incubation period of 10 minutes and assessed for luminescence, the measure of reporter gene expression. […]

[4] = system: S. mutans; assay: In vitro attachment assay to a smooth surface (Petri dish) with sucrose; assay type: cell-based; conditions: CSP at 8 μg/mL for 10 minutes prior to hour-long incubation on Petri dishes with sucrose; up to 51% without CSP; FIG. 8
Description: The bacteria were grown in liquid cultures to the desired optical density. 20 ml of the cultures were then transferred into Petri dishes and sucrose added to the final concentration of 2%. The incubation was resumed for one hour, after which the liquid fraction was withdrawn and the fresh medium was added into which the layer of attached cells was scraped. The percentage of the attached bacteria was determined as the ratio of the optical densities of the attached to the total (a sum of attached and unattached) bacteria.
Synthetic CSP was dissolved in water to the concentration of 1 mg/mL as described in Li, Y-H et al., J. of Bact., 183:897–908 (2001). The cultures were grown in Todd Hewitt Broth (THB) supplemented with 5% horse serum. CSP was added to the cultures at the time of diluting the overnight culture (time zero of the culture growth) to a designated concentration between 1 and 8 mcg/mL. The incubation then continued up to the optical density where the expression of GTF is maximal (OD 650=0.1). The cultures where then collected and used in Western blotting with anti-glucosyltransferase (gtf) antibody. […]
An in vitro assay was performed to determine whether CSP can inhibit the attachment of S. mutans to a smooth surface. When sucrose was added to the medium, the wild-type S. mutans readily attached to the surface of a Petri dish. […]

Substance: CSP: natural peptide produced and secreted by S. mutans that acts as an autoinducer; sequence SEQ ID NO: 1 (FIG. 1); synthetic CSP was used (SGSLSTFFRLFNRSFTQALGK; Streptococcus mutans)
- peak expression of GTFB (Western blot) [1]: lowered proportionally to the amount of peptide added
- effect on FTF expression (Western blot) [2]: no effect
- repression of gtfB reporter gene expression (luminescence) [3]: increasing concentrations of CSP increased the magnitude of repression
- bacterial cells localized to the attached layer [4]: less than 8%
